We go through three compounds from ChEMBL document CHEMBL6083210, “Exploring apoptotic induction of malabaricone A in triple-negative breast cancer cells: an acylphenol phyto-entity isolated from the fruit rind of Myristica malabarica Lam” (RSC Med Chem, 2024).

Each structure is given as a SMILES string.

What all share (assay type): functional, cell-based
One experiment relates to MDA-MB-231. Nature of the experiment: Antiproliferative activity against human MDA-MB-231 cells assessed as reduction in cell viability incubated for 24 hrs by MTT assay. The conditions noted are these: MDA-MB-231, 24 h. (Tetrazolium assays rely on reduction of a dye to a coloured formazan, in cell work by metabolically active cells.)
For the next experiment, the system named is SK-BR-3. Kind of experiment: Antiproliferative activity against human SK-BR-3 cells assessed as reduction in cell viability incubated for 24 hrs by MTT assay. The conditions noted are these: SK-BR-3, 24 h.
For a further experiment, the system named is MCF-10A. Kind of experiment: Antiproliferative activity against human MCF-10A cells assessed as reduction in cell viability incubated for 24 hrs by MTT assay.

As usually defined, the IC50 is the point on the concentration scale where inhibition reaches its midpoint. Consider `O=C(CCCCCCCCc1ccc(O)c(O)c1)c1c(O)cccc1O` [MALABARICONE C], for which the IC50 in the experiment on MDA-MB-231 was found to be 19.6 µM; with SK-BR-3, 16.4 µM; with MCF-10A, 97.3 µM.
For `O=C(CCCCCCCCc1ccc(O)cc1)c1c(O)cccc1O` [MALABARICONE B], in that order: 19.1 µM, 13.5 µM and 62 µM.
As for `COc1cccc2c1C(=O)c1c(O)c3c(c(O)c1C2=O)C[C@@](O)(C(=O)CO)C[C@@H]3O[C@H]1C[C@H](N)[C@H](O)[C@H](C)O1` [DOXORUBICIN], the figures for the IC50 in the experiment on MDA-MB-231, in the experiment on SK-BR-3 and in the experiment on MCF-10A were 20.8 µM, greater than 50 µM and 35.2 µM, respectively.
